PMC9130233, “An inhibitor of RORγ for chronic pulmonary obstructive disease treatment” (Scientific Reports, 2022)
Read-outs that look alike come from different tables or passages of the source.

How the values were obtained:
[1] = Toxicokinetics (blood), 14-day inhalation study in Sprague Dawley rats; type: in vivo, rat; settings: for half-life / AUC(0-t) / Cmax / Tmax: inhaled or intranasal; for half-life / AUC(0-t) / Cmax: inhalation; for AUC(0-t): read-out: AUC0-tlast, mean (SE); for Cmax: read-out: Cmax, mean (SE)
Procedure: Rats were exposed to PCCR-1 aerosols at 3.4, 10.8 and 32.1 mg/kg/day (delivered dose) for 60 min daily for 14 days using a snout only exposure technique via a modular stainless steel flow past inhalation chamber at indicated doses as mentioned in Table 3. No treatment-related findings noted, including myeloid:erythroid (M:E) ratios in any dose levels except minimal changes in the reticulocytes and adrenal glands.
The TK assessment was done by measuring the concentrations of PCCR-1 in blood.
The toxicology study was done in SD (Sprague Dawley) rats that were exposed to PCCR-1 aerosol for 60 min daily at 3.4, 10.8 and 32.1 mg/kg/day (delivered dose) for 14 days using a snout only exposure technique via a modular stainless steel flow past inhalation chamber. A 60% w/w blend of PCCR-1 in Lactose LH201 was prepared by adding the appropriate amount of PCCR-1 to the appropriate amount of lactose. The estimated delivered doses were derived based on analytical aerosol concentration, and respiratory minute volume calculated based on body weight, exposure duration, and animal body weight (Supplementary section B).

[2] = test system: IL-17A release in canine PBMC; assay: IL-17A release, canine PBMC, anti-CD3 + anti-CD28; type: cell-based; settings: Canis lupus familiaris, anti-CD3 + anti-CD28, n = 6, read-out: Cellular activity: Canine IC50, IL-17A release
Procedure: Inhibition of RORγ by PCCR-1 was also estimated in a functional assay by measuring the inhibition of Th17 dependent cytokine IL-17A release in human peripheral blood mononuclear cells (PBMCs), mouse splenocytes and canine PBMC stimulated with their respective anti-CD3 and anti-CD28 antibodies.
Canine PBMCs were procured from Lonza (Cologue, Germany). Frozen canine PBMCs was quickly thawed in a 37 °C water bath and cells were seeded in 96-well plates coated with canine anti-CD3mAb (30 µg/mL). Cells were further treated with the compound similar to human PBMC with co-stimulation of canine anti-CD28 mAb (10 µg/mL). After 72 h of incubation the supernatant was collected for estimating canine IL-17 by ELISA.

[3] = Drug concentrations on day-8 in CS-model mice after 7-day intranasal treatment; type: in vivo; settings: C57BL/6, mouse, other: intranasal; for concentration at 1 h: CS exposed mice
Procedure: Additionally, after 7-day intranasal treatment with PCCR-1 in the CS-model in mice as described above, blood, BAL fluid and lung tissues were collected on day-8 approximately 1 h after the last treatment dose for estimating the drug concentrations for PK-PD correlation.

[4] = both sexes, Sprague Dawley, rat, blood, 10.8 mg/kg/day, SD rat blood, 10.8 mg/kg/day, Day 1, Mean
[5] = both sexes, Sprague-Dawley, rat, blood, 3.4 mg/kg/day, SD rat blood, 3.4 mg/kg/day, Day 1, Mean
[6] = both sexes, Sprague-Dawley, rat, blood, 3.4 mg/kg/day, SD rat blood, 3.4 mg/kg/day, Day 14, Mean
[7] = both sexes, Sprague-Dawley, rat, in vivo, 32.1 mg/kg/day, SD rat blood, 32.1 mg/kg/day, Day 1, Mean
[8] = both sexes, Sprague-Dawley, rat, in vivo, 32.1 mg/kg/day, SD rat blood, 32.1 mg/kg/day, Day 14, Mean
[9] = both sexes, Sprague-Dawley, rat, whole blood, 10.8 mg/kg/day, SD rat blood, 10.8 mg/kg/day, Day 14, Mean
[10] = female, Sprague-Dawley, rat, blood, 3.4 mg/kg/day, SD rat blood, 3.4 mg/kg/day, Day 1, Female
[11] = female, Sprague-Dawley, rat, blood, 3.4 mg/kg/day, SD rat blood, 3.4 mg/kg/day, Day 14, Female
[12] = female, Sprague-Dawley, rat, blood, 10.8 mg/kg/day, SD rat blood, 10.8 mg/kg/day, Day 1, Female
[13] = female, Sprague-Dawley, rat, in vivo, 32.1 mg/kg/day, SD rat blood, 32.1 mg/kg/day, Day 1, Female
[14] = female, Sprague-Dawley, rat, in vivo, 32.1 mg/kg/day, SD rat blood, 32.1 mg/kg/day, Day 14, Female
[15] = female, Sprague-Dawley, rat, whole blood, 10.8 mg/kg/day, SD rat blood, 10.8 mg/kg/day, Day 14, Female
[16] = male, Sprague Dawley, rat, blood, 10.8 mg/kg/day, SD rat blood, 10.8 mg/kg/day, Day 1, Male
[17] = male, Sprague-Dawley, rat, blood, 3.4 mg/kg/day, SD rat blood, 3.4 mg/kg/day, Day 1, Male
[18] = male, Sprague-Dawley, rat, blood, 3.4 mg/kg/day, SD rat blood, 3.4 mg/kg/day, Day 14, Male
[19] = male, Sprague-Dawley, rat, in vivo, 32.1 mg/kg/day, SD rat blood, 32.1 mg/kg/day, Day 1, Male
[20] = male, Sprague-Dawley, rat, in vivo, 32.1 mg/kg/day, SD rat blood, 32.1 mg/kg/day, Day 14, Male
[21] = male, Sprague-Dawley, rat, whole blood, 10.8 mg/kg/day, SD rat blood, 10.8 mg/kg/day, Day 14, Male
[22] = rat blood, mid and high dose levels

CCn1c(C(C)(C)Oc2ccc(F)cc2F)nc2cc(NC(=O)Cc3ccc(S(=O)(=O)CC)cc3)ccc21 [PCCR-1]
half-life ([1]; Sprague-Dawley, in vivo, SD rat blood, 32.1 mg/kg/day, Day 1, Female): 6.9 h
half-life ([1]; Sprague-Dawley, in vivo, SD rat blood, 32.1 mg/kg/day, Day 1, Male): 6.8 h
AUC(0-t) [1, 4]: 5090 ng·h/mL
Cmax [1, 4]: 457 ng/mL
Tmax ([1]; both sexes, Sprague Dawley, rat, blood, 10.8 mg/kg/day, from start of inhalation dosing, SD rat blood, 10.8 mg/kg/day, Day 1, Mean): 3 h
half-life ([1]; both sexes, Sprague-Dawley, in vivo, SD rat blood, 32.1 mg/kg/day, Day 1, Mean): 6.8 h
AUC(0-t) [1, 5]: 982 ng·h/mL
Cmax [1, 5]: 189 ng/mL
half-life [1, 6]: 6.4 h
AUC(0-t) [1, 6]: 2560 ng·h/mL
Cmax [1, 6]: 215 ng/mL
Tmax ([1]; both sexes, Sprague-Dawley, rat, blood, 3.4 mg/kg/day, from start of inhalation dosing, SD rat blood, 3.4 mg/kg/day, Day 1, Mean): 3 h
Tmax ([1]; both sexes, Sprague-Dawley, rat, blood, 3.4 mg/kg/day, from start of inhalation dosing, SD rat blood, 3.4 mg/kg/day, Day 14, Mean): 4 h
AUC(0-t) [1, 7]: 7440 ng·h/mL
Cmax [1, 7]: 735 ng/mL
AUC(0-t) [1, 8]: 12200 ng·h/mL
Cmax [1, 8]: 1020 ng/mL
half-life ([1]; both sexes, Sprague-Dawley, rat, whole blood, 10.8 mg/kg/day, SD rat blood, 10.8 mg/kg/day, Day 1, Mean): 5.9 h
half-life [1, 9]: 5.1 h
AUC(0-t) [1, 9]: 6750 ng·h/mL
Cmax [1, 9]: 519 ng/mL
Tmax ([1]; both sexes, Sprague-Dawley, rat, whole blood, 10.8 mg/kg/day, from start of inhalation dosing, SD rat blood, 10.8 mg/kg/day, Day 14, Mean): 4 h
tlast ([1]; both, Sprague-Dawley, rat, in vivo, 3.4 mg/kg/day): 25.0 h
tlast ([1]; both, Sprague-Dawley, rat, in vivo, 10.8 mg/kg/day): 25.0 h
AUC(0-t) [1, 10]: 1000 ng·h/mL
Cmax [1, 10]: 202 ng/mL
AUC(0-t) [1, 11]: 2610 ng·h/mL
Cmax [1, 11]: 241 ng/mL
Tmax ([1]; female, Sprague-Dawley, rat, blood, 3.4 mg/kg/day, from start of inhalation dosing, SD rat blood, 3.4 mg/kg/day, Day 1, Female): 3 h
Tmax ([1]; female, Sprague-Dawley, rat, blood, 3.4 mg/kg/day, from start of inhalation dosing, SD rat blood, 3.4 mg/kg/day, Day 14, Female): 5 h
half-life [1, 12]: 5.8 h
AUC(0-t) [1, 12]: 7270 ng·h/mL
Cmax [1, 12]: 544 ng/mL
Tmax ([1]; female, Sprague-Dawley, rat, blood, 10.8 mg/kg/day, from start of inhalation dosing, SD rat blood, 10.8 mg/kg/day, Day 1, Female): 3 h
tlast ([1]; female, Sprague-Dawley, rat, in vivo, 3.4 mg/kg/day): 25.0 h
tlast ([1]; female, Sprague-Dawley, rat, in vivo, 10.8 mg/kg/day): 25.0 h
AUC(0-t) [1, 13]: 9470 ng·h/mL
Cmax [1, 13]: 936 ng/mL
AUC(0-t) [1, 14]: 16200 ng·h/mL
Cmax [1, 14]: 1150 ng/mL
half-life [1, 15]: 5.1 h
AUC(0-t) [1, 15]: 8050 ng·h/mL
Cmax [1, 15]: 679 ng/mL
Tmax ([1]; female, Sprague-Dawley, rat, whole blood, 10.8 mg/kg/day, from start of inhalation dosing, SD rat blood, 10.8 mg/kg/day, Day 14, Female): 3 h
tlast ([1]; from start of inhalation dosing, SD rat blood, 3.4 mg/kg/day, Day 1, Female): 9.0 h
tlast ([1]; from start of inhalation dosing, SD rat blood, 3.4 mg/kg/day, Day 1, Male): 9.0 h
tlast ([1]; from start of inhalation dosing, SD rat blood, 3.4 mg/kg/day, Day 1, Mean): 9.0 h
tlast ([1]; from start of inhalation dosing, SD rat blood, 32.1 mg/kg/day, Day 1, Female): 25.0 h
tlast ([1]; from start of inhalation dosing, SD rat blood, 32.1 mg/kg/day, Day 1, Male): 25.0 h
tlast ([1]; from start of inhalation dosing, SD rat blood, 32.1 mg/kg/day, Day 1, Mean): 25.0 h
tlast ([1]; from start of inhalation dosing, SD rat blood, 32.1 mg/kg/day, Day 14, Female): 25.0 h
tlast ([1]; from start of inhalation dosing, SD rat blood, 32.1 mg/kg/day, Day 14, Male): 25.0 h
tlast ([1]; from start of inhalation dosing, SD rat blood, 32.1 mg/kg/day, Day 14, Mean): 25.0 h
half-life [1, 16]: 6 h
AUC(0-t) [1, 16]: 2910 ng·h/mL
Cmax [1, 16]: 370 ng/mL
Tmax ([1]; male, Sprague Dawley, rat, blood, 10.8 mg/kg/day, from start of inhalation dosing, SD rat blood, 10.8 mg/kg/day, Day 1, Male): 3 h
tlast ([1]; male, Sprague Dawley, rat, in vivo, 10.8 mg/kg/day): 25.0 h
AUC(0-t) [1, 17]: 963 ng·h/mL
Cmax [1, 17]: 177 ng/mL
half-life [1, 18]: 6.4 h
AUC(0-t) [1, 18]: 2500 ng·h/mL
Cmax [1, 18]: 190 ng/mL
Tmax ([1]; male, Sprague-Dawley, rat, blood, 3.4 mg/kg/day, from start of inhalation dosing, SD rat blood, 3.4 mg/kg/day, Day 1, Male): 3 h
Tmax ([1]; male, Sprague-Dawley, rat, blood, 3.4 mg/kg/day, from start of inhalation dosing, SD rat blood, 3.4 mg/kg/day, Day 14, Male): 3 h
tlast ([1]; male, Sprague-Dawley, rat, in vivo, 3.4 mg/kg/day): 25.0 h
tlast ([1]; male, Sprague-Dawley, rat, in vivo, 10.8 mg/kg/day): 25.0 h
AUC(0-t) [1, 19]: 5410 ng·h/mL
Cmax [1, 19]: 534 ng/mL
AUC(0-t) [1, 20]: 8230 ng·h/mL
Cmax [1, 20]: 885 ng/mL
AUC(0-t) [1, 21]: 5440 ng·h/mL
Cmax [1, 21]: 359 ng/mL
Tmax ([1]; male, Sprague-Dawley, rat, whole blood, 10.8 mg/kg/day, from start of inhalation dosing, SD rat blood, 10.8 mg/kg/day, Day 14, Male): 5 h
AUC in blood accumulation relative to day-1 ([1]; once-daily inhalation for 14 days, except female rats at 10.8 mg/kg/day): 1.5–2.6 fold
AUC in females higher than males [1, 22]: 1.5–2.5 fold
Cmax in females higher than males [1, 22]: 1.3–1.9 fold
IC50 [2]: 504 nM
concentration at 1 h ([3]; BAL fluid, day-8, intranasal 1 µg/animal, read-out: Total concentration BAL fluid): 25.7 nM
concentration at 1 h ([3]; BAL fluid, day-8, intranasal 10 µg/animal, read-out: Total concentration BAL fluid): 160 nM
concentration at 1 h ([3]; BAL fluid, day-8, intranasal 30 µg/animal, read-out: Total concentration BAL fluid): 390 nM
concentration at 1 h ([3]; BAL fluid, day-8, intranasal 50 µg/animal, read-out: Total concentration BAL fluid): 779 nM
concentration at 1 h ([3]; BAL fluid, day-8, intranasal 100 µg/animal, read-out: Total concentration BAL fluid): 1320 nM
concentration at 1 h ([3]; lung, day-8, intranasal 1 µg/animal, read-out: Total concentration Lung): 5480 nM
concentration at 1 h ([3]; lung, day-8, intranasal 10 µg/animal, read-out: Total concentration Lung): 53600 nM
concentration at 1 h ([3]; lung, day-8, intranasal 30 µg/animal, read-out: Total concentration Lung): 171000 nM
concentration at 1 h ([3]; lung, day-8, intranasal 50 µg/animal, read-out: Total concentration Lung): 379000 nM
concentration at 1 h ([3]; lung, day-8, intranasal 100 µg/animal, read-out: Total concentration Lung): 608000 nM
Kp at 1 h ([3]; lung/plasma, CS-model mice, 7-day intranasal treatment, all tested doses (1 to 100 µg), read-out: concentration in lung as compared to the plasma): > 1000
concentration at 1 h ([3]; plasma, day-8, intranasal 1 µg/animal, read-out: Total concentration Plasma): < 1.85 nM
concentration at 1 h ([3]; plasma, day-8, intranasal 10 µg/animal, read-out: Total concentration Plasma): < 1.85 nM
concentration at 1 h ([3]; plasma, day-8, intranasal 30 µg/animal, read-out: Total concentration Plasma): 20.6 nM
concentration at 1 h ([3]; plasma, day-8, intranasal 50 µg/animal, read-out: Total concentration Plasma): 33.2 nM
concentration at 1 h ([3]; plasma, day-8, intranasal 100 µg/animal, read-out: Total concentration Plasma): 84.7 nM
